The values below come from PMC5931576, “Allosteric modulation of the farnesoid X receptor by a small molecule” (Scientific Reports, 2018).

The test system of one data set is c-Kit. The experiment in a line: Kinase inhibition assay (radiometric or HTRF). It is filed as biochemical. (Time-resolved FRET reads energy transfer from a long-lived donor to a nearby acceptor.)
For a further data set, the system named is T1, TGR5.
T1 construct: Eurofins (Brussels, Belgium)
Briefly: TGR5 assay (Eurofins). The class given is cell-based. As to conditions: 1 and 10 µM.

Another data set relates to SHP mRNA. The experiment in a line: FXR target gene quantification (qRT-PCR) in HepG2 cells: SHP. The conditions noted are these: for SHP mRNA, mean fold activation compared to DMSO (0.1%): HepG2, 24 h. It is filed as cell-based.
For data set [1], the system named is PPARα/γ/δ, LXRα/β, RXRα/β/γ, RARα/β/γ, VDR and CAR. Briefly: Hybrid reporter gene assays for nuclear receptors related to FXR. The class given is cell-based, human. From the text:
The Gal4-fusion receptor plasmids pFA-CMV-hPPARα-LBD[34], pFA-CMV-hPPARγ-LBD[34], pFA-CMV-hPPARδ-LBD[34], pFA-CMV-hLXRα-LBD[35], pFA-CMV-hLXRβ-LBD[35], pFA-CMV-hRXRα-LBD[36], pFA-CMV-hRXRβ-LBD[36], pFA-CMV-hRXRγ-LBD[36], pFA-CMV-hRARα-LBD[36], pFA-CMV-hRARβ-LBD[36], pFA-CMV-hRARγ-LBD[36], pFA-CMV-hVDR-LBD[36] and pFA-CMV-hCAR-LBD[36] coding for the hinge region and ligand binding domain (LBD) of the canonical isoform of the respective nuclear receptor have been reported previously. pFR-Luc (Stratagene) was used as reporter plasmid and pRL-SV40 (Promega) for normalization of transfection efficiency and cell growth.
HEK293T cells were grown in DMEM high glucose, supplemented with 10% FCS, sodium pyruvate (1 mM), penicillin (100 U/mL) and streptomycin (100 μg/mL) at 37 °C and 5% CO2. The day before transfection, HEK293T cells were seeded in 96-well plates (2.5·10^4 cells/well). Before transfection, medium was changed to Opti-MEM without supplements. Transient transfection was carried out using Lipofectamine LTX reagent (Invitrogen) according to the manufacturer’s protocol with pFR-Luc (Stratagene), pRL-SV40 (Promega) and pFA-CMV-hNR-LBD. […] Luminescence was measured with an Infinite M200 luminometer (Tecan Deutschland GmbH) or a Tecan Spark 10 M luminometer (Tecan). […]
In general terms: In a reporter assay the amount or activity of a reporter protein is the signal.

Data set [2] can be described thus: Metabolism assay (liver microsomes). The class given is in vitro ADME, Sprague−Dawley rats. The conditions noted are these: rat liver microsomes, 10 μM. As for the experimental part:
(§1) In vitro biological evaluation […]
MgCl2). After 5 min, the reaction was started by the addition of 13 μL of microsome mix from the liver of Sprague−Dawley rats (Invitrogen; 20 mg protein/mL in 0.1 M phosphate buffer) in a shaking water bath at 37 °C.
The reaction was stopped by addition of 250 μL of ice-cold methanol at 0, 15, 30 and 60 min. The samples were diluted with 250 μL of DMSO and centrifuged at 10000 g for 5 min at 4 °C. The supernatants were analyzed and test compound was quantified by HPLC: mobile phase: MeOH 83%/H2O 17%/formic acid 0.1%; flow-rate:
1 mL/min; stationary phase: MultoHigh Phenyl phase, 5 μm, 250 × 4, precolumn, phenyl, 5 μm, 20 × 4; detection wavelength: 330 and 254 nm; injection volume: 50 μL. Control samples were performed to check the stability of 4 or 16 in the reaction mixture: first control was without NADPH, which is needed for the enzymatic activity of the microsomes, second control was with inactivated microsomes (incubated for 20 min at 90 °C), third control was […]
quantified by an external calibration curve, where data are expressed as means ± SEM of single determinations […]
obtained in three independent experiments. […]
as mean percent of remaining compound ± SEM; n=3): 4: 0 min: 100 ± 0%, 15 min: 86 ± 3%, 30 min: 74 ± 1%,
In general terms: Microsomes from liver hold many membrane-bound enzymes, among them those of drug oxidation.

Data set [3] deals with kinases that interact with FXR. Briefly: Kinase inhibition profile, kinases that interact with FXR. It is filed as biochemical.
The test system of a further data set is HepG2 cells. The experiment in a line: WST-1 assay. The class given is cell-based. The conditions noted are these: 48 h (or 24 h). As for the experimental part: as §1
WST-1 assay (Roche Diagnostics International AG, Rotkreuz, Schweiz) was performed according to manufacturer’s protocol and as described previously. In brief, HepG2 cells were seeded in DMEM high glucose, supplemented with SP (1 mM), penicillin (100 U/mL), streptomycin (100 µg/mL) and 10% FCS in 96-well plates (3∙10^4 cells/well). After 24 h, medium was changed to DMEM high glucose, supplemented with penicillin (100 U/mL), streptomycin (100 µg/mL) and 1% charcoal stripped FCS and cells were incubated with 4 or 16 (final […]
and DMEM/1% DMSO as negative controls. After 48 h (or 24 h), WST reagent (Roche Diagnostics International AG) was added to each well according to manufacturer’s instructions. After 45 min incubation, absorption (450 nm/ reference: 620 nm) was determined with a Tecan Infinite M200 luminometer (Tecan Deutschland GmbH). Each experiment was repeated at least three times in triplicates. […]

Structures are written as SMILES.

Turning to `CS(=O)(=O)O.CS(=O)(=O)O.CS(=O)(=O)O.CS(=O)(=O)O.Cc1ccc(NC(=O)c2ccc(Cl)cc2)cc1Nc1nccc(-c2cccnc2)n1.Cc1ccc(NC(=O)c2ccc(Cl)cc2)cc1Nc1nccc(-c2cccnc2)n1.O.O.O` [compound 16, 4-Chloro-N-(4-methyl-3-(4-(pyridin-3-yl)pyrimidin-2-ylamino)phenyl)benzamide dimesylate-sesquihydrate], the “Inhibition of c-Kit” value with c-Kit is listed as “potent inhibitor”. For the same compound, the “TGR5 modulation (agonistic or antagonistic activity)” value with TGR5 is “does not modulate”. Further, the “CDCA-induced SHP mRNA expression compared to 1 alone” value with SHP mRNA (HepG2, 16 co-incubated with 1) is on record as “about 3 fold”. Further, the “SHP mRNA, mean fold activation compared to DMSO (0.1%)” value with SHP mRNA (0.3 µM alone) is 2.32 ± 0.18; in the data set on SHP mRNA (16 (0.3 µM) + 1 (20 µM)) it was 1.64 ± 0.23; in the data set on SHP mRNA (16 (0.3 µM) + 1 (50 µM)) it was 12.70 ± 1.04. The “Selectivity over nuclear receptors related to FXR” value in data set [1] is reported as “high selectivity”. Besides, the “mean percent of remaining compound” value was found to be 100 ± 0% in data set [2] (0 min), 92 ± 1% in data set [2] (15 min), 88 ± 1% in data set [2] (30 min) and 86 ± 1% in data set [2] (60 min). For the same compound, the “Inhibition of kinases that interact with FXR” value in data set [3] was “does not markedly inhibit”. In addition, the “WST-1, mean percent of untreated control” value in the data set with HepG2 cells (HepG2, 0.1 µM) was found to be 113 ± 1%; in the data set with HepG2 cells (HepG2, 0.3 µM), 107 ± 7%; with HepG2 cells (HepG2, 1 µM) it was 112 ± 3%; in the data set on HepG2 cells (HepG2, 10 µM), 92 ± 2%; with HepG2 cells (HepG2, 50 µM) it was 87 ± 2%; in the data set on HepG2 cells (HepG2, 16 (0.3 µM) + 1 (50 µM)), 93 ± 7%.
